The results in this text go back to ChEMBL document CHEMBL3301361, “Experimental in vitro DMPK and physicochemical data on a set of publicly disclosed compounds”.

A short description of the first series: physchem. The note with it: octan-1-ol/water, pH 7.4.
In general, logD refers to the decadic logarithm of the distribution of all forms, ionised or not, between an organic phase and buffer at a given pH. A lower logD goes with a more hydrophilic compound. Compound `Nc1ccccc1[N+](=O)[O-]` [2-NITROANILINE] returned a logD of -0.96.
As for `O=C1C(=O)c2ccccc2-c2ccccc21` [9,10-PHENANTHRENEQUINONE], the logD amounted to 2.6.
As to `CCN(CC)C(=O)c1ccc(C2=CC3(CCNCC3)Oc3ccccc32)c(O)c1` [ADL-5747 FREE BASE], the logD was determined as 0.77.
On the same count and under the same terms, the value for `CCN(CC)C(=O)c1ccc(C2=CC3(CCNCC3)Oc3cccc(O)c32)cc1` [ADL-5859] was 0.54; that for `Oc1ncnc2[nH]ncc12` [ALLOPURINOL] was -0.42; that for `CCC1(c2ccc(N)cc2)CCC(=O)NC1=O` (configuration not stated) [AMINOGLUTETHIMIDE] was 0.6.
`Clc1ccc([C@]23CNC[C@H]2C3)cc1Cl` [AMITIFADINE] displayed a logD of 1.96.
In turn, `CC(C)(C)OC(=O)c1ncn2c1[C@@H]1CCCN1C(=O)c1c(Br)cccc1-2` [BRETAZENIL] came in with a logD of 2.48.
Compound `C=CCC1(CC(C)C)C(=O)NC(=O)NC1=O` [BUTALBITAL] showed a logD of 1.48.
As to `CCCCC1(CC)C(=O)NC(=O)NC1=O` [BUTETHAL], the logD was determined as 1.5.
On the same count and under the same terms, the value for `CC(N)Cc1c[nH]c2ccc(OCc3cccs3)cc12` (configuration not stated) [BW-723C86] was 0.48.
With `CCCC(C)(COC(N)=O)COC(=O)NC(C)C` (configuration not stated) [CARISOPRODOL], the logD worked out at 2.01.
Consider `Nc1nc2ccc(Cl)cc2c2nc(-c3ccco3)nn12` [CGS-15943], for which the logD worked out at 3.98.
The compound `O=C(O)CCCc1ccc(N(CCCl)CCCl)cc1` [CHLORAMBUCIL] showed a logD of 1.47.
On to `NC(=NCc1ccc(Cl)cc1)SCCCc1cnc[nH]1` [CLOBENPROPIT], for which the logD was 1.13.
Still for that read-out and setting: the figure for `COc1cc2c(c(OC)c1OC)-c1ccc(OC)c(=O)cc1[C@@H](NC(C)=O)CC2` [COLCHICINE] is 0.82; for `Cc1cccc([C@H](C)c2cnc[nH]2)c1C` [DEXMEDETOMIDINE] it is 2.79.

Staying with this series, now noted: octan-1-ol/water, pH 7.4, LogD7.4.
Turning to `CC(C)C(NC(=O)Cn1c(-c2ccccc2)ccc(NS(C)(=O)=O)c1=O)C(=O)C(F)(F)F` (configuration not stated), the logD is 1.77.
With `Cc1cc(C)cc(-c2c(O)nc3cc(Cl)c(C(=O)Nc4ccncn4)cc3c2OCCC2CCCCN2)c1` (configuration not stated), the logD worked out at 1.7.
`O=C1Nc2ccccc2C1(O)c1ccccc1` (configuration not stated): the logD amounted to 1.71. The logD values of the last two compounds are within 0.2 log units of each other.
Still for that read-out and setting: the value for `CC(C)C(NC(=O)Cn1c(-c2ccccc2)ccc(N)c1=O)C(=O)C(F)(F)F` (configuration not stated) was 1.74.
In the case of `CN(C)c1ccnc2sc(C(N)=O)c(N)c12`, the logD worked out at 1.7.
Compound `Nc1nccc(-c2cccs2)n1` came in with a log distribution coefficient (logD) of 1.75.
Same read-out and setting: the value for `OC(c1ccccc1)c1cccnc1` (configuration not stated) was 1.72; that for `O=S(=O)(Nc1cccc2[nH]ncc12)c1cccs1` was 1.7; that for `CC(=O)NCc1ccc(CN2CCN(c3ccccc3)CC2)cc1` was 1.78.
The same measure, in the same setting: the value for `COc1cc(F)ccc1-c1cc(CNC2CCCC2)ccn1` was 1.71.
Turning to `CCC(c1nc2ccsc2c(=O)n1Cc1ccc(C)cc1)N(CCCN)C(=O)c1ccc(C)cc1` (configuration not stated), the logD was 1.69.
Compound `CCC(c1nc2ccn(C)c2c(=O)n1Cc1ccccc1)N(CCCN)C(=O)c1ccc(C)cc1` (configuration not stated) came in with a logD of 1.8.
Consider `Cc1ccc(NC(=O)c2ccnc(N3CCOCC3)c2)cc1Nc1ccnc(OC2CCN(C)CC2)n1`, for which the logD was 1.8.
As for `COc1ccc2c(C)cc(=O)n(CCN3CCC(NCc4cc5c(cn4)OCCO5)CC3)c2c1`, the logD was determined as 1.72.
The same measure, in the same setting: the value for `Cc1[nH]c(C(=O)NC2CCN(c3cc(C(=O)O)cc(Cl)n3)CC2)c(Cl)c1Cl` was 1.74; that for `C[C@H]1O[C@@H](n2cnc3c(N)nc(OCC4CCC(F)(F)CC4)nc32)[C@H](O)[C@@H]1O` was 1.72; that for `Nc1n[nH]c2c(Cl)cccc12` was 1.7.
In turn, `COc1ccc(-c2nc3c(NCCCNC(=O)C4CC4)c(Br)cnc3[nH]2)cc1` came in with a logD of 1.71.
Compound `CC(C)Cn1c(=O)n(C)c(=O)c2c(C(=O)N3CC[C@@H](O)C3)c(Cc3cncc4ccccc34)sc21` gave a logD of 1.74.
Compound `Nc1ccc2c(c1)C(=O)C(=O)c1cc(N)ccc1-2` came in with a logD of 1.72.
Turning to `Cc1ccc2c(c1)c(-c1ccnc3cc(C(F)(F)F)ccc13)c(C)n2CC(=O)O`, the logD was 1.78.
`CCCSc1nc(N2CCCC(C(=O)O)C2)ccc1C(=O)NC1CCCCC1` (configuration not stated) had a logD of 1.72.
On the same count and under the same terms, the figure for `O=C(O)C(c1ccccc1)N1CCO[C@@H](CN2CCC(Oc3ccc(Cl)c(Cl)c3)CC2)C1` (some centres not stated) is 1.71; for `O=C(O)c1ccccc1C(=O)N1CCC(N2CCC(Oc3ccc(Cl)c(Cl)c3)CC2)CC1` it is 1.73.
`CC1=NC(C)(c2cccc(-c3cccnc3)c2)N=C1N` (configuration not stated) came in with a logD of 1.7. The logD values of the last two compounds are within 0.2 log units of each other.
Consider `CNc1nc2ccccc2n1Cc1sc2c(c1C(=O)N1C[C@H](O)CO1)c(=O)n(C)c(=O)n2CC(C)C`, for which the logD was determined as 1.77.
The compound `COc1ccc(C(C)NC(=O)C2(N)CCN(c3ncnc4[nH]ccc34)CC2)cc1OC` (configuration not stated) had a logD of 1.8.
With `CN(C)C(=O)c1ccc(CN2CCc3cc4nc(N)sc4cc3CC2)cc1`, the logD came to 1.72. This logD and that of the compound before are within 0.2 log units of each other.
As for `C[C@@H](NC(=O)[C@H]1CCCNC1)c1ccc(Nc2ncc3cc(-c4ccncc4)ccc3n2)cc1`, the logD was 1.69.
Take `COc1ccccc1CNC(=O)c1ccc2cnccc2n1`: the log distribution coefficient (logD) was found to be 1.8.
Same read-out and setting: the figure for `O=C(Nc1cc(C(F)(F)F)cc(C(F)(F)F)c1)c1cnc(Cl)nc1C(F)(F)F` is 1.8.
On to `NC(=O)c1ccc(Br)cc1`, for which the logD was found to be 1.75. This logD and that of the compound before are within 0.2 log units of each other.
On to `CC(=O)Nc1ccc(-c2ccccc2)n(CC(=O)NC(C(=O)C(F)(F)F)C(C)C)c1=O` (configuration not stated), for which the log distribution coefficient (logD) amounted to 1.78.
`COc1cc2c(Nc3ccc(F)cc3F)c(C(N)=O)cnc2cc1NCCN(C)C` yielded a logD of 1.71.
`COc1cc2c(Nc3ccc(F)cc3F)c(C(N)=O)cnc2cc1N1CCN(C)CC1` came in with a log distribution coefficient (logD) of 1.75.
With `NC(=O)Nc1sc(-c2ccc(F)cc2)cc1C(=O)N[C@H]1CCCNC1`, the logD turned out to be 1.76.
Same read-out and setting: the value for `COc1nc(Cl)cnc1NS(=O)(=O)c1cccc2c(N(C)C)cccc12` was 1.74; that for `Nc1nc(N)c2cc(Br)ccc2n1` was 1.78.
As for `c1ccc(-c2ccc3ccccc3n2)cc1` [2-PHENYLQUINOLINE], the logD stood at 4.
Take `Nc1ncnc2ccccc12` [4-AMINOQUINAZOLINE]: the logD worked out at 1.26.
`O=c1cc(-c2ccccc2)oc2ccc(O)cc12` [6-HYDROXYFLAVONE] registered a logD of 3.6.
As to `CC(=O)c1ccc(S(=O)(=O)NC(=O)NC2CCCCC2)cc1` [ACETOHEXAMIDE], the logD was -0.49.
`Cc1c(CN(C)C(=O)/C=C/c2cnc3c(c2)CCC(=O)N3)oc2ccccc12` [AFN-1252] returned a logD of 2.36.
The compound `Cn1ncc(Cl)c1-c1cc(C(=O)N[C@H](CN)Cc2cccc(F)c2)sc1Cl` [AFURESERTIB] showed a logD of 2.99.
`CN(C)c1nc(N(C)C)nc(N(C)C)n1` [ALTRETAMINE] returned a logD of 2.44.
For `CC(C)c1ccc2oc3nc(N)c(C(=O)O)cc3c(=O)c2c1` [AMLEXANOX], the logD came out at 1.1.
`CCO/N=C(\c1ccc(Br)cc1)C1CCN(C2(C)CCN(C(=O)c3c(C)cc[n+]([O-])c3C)CC2)CC1` [ANCRIVIROC] returned a pH-dependent lipophilicity (logD) of 2.14.
`CNCC[C@@H](Oc1ccccc1C)c1ccccc1` [ATOMOXETINE] showed a log distribution coefficient (logD) of 1.2.
On the same count and under the same terms, the value for `Cn1cnc([N+](=O)[O-])c1Sc1ncnc2nc[nH]c12` [AZATHIOPRINE] was 0.19; that for `CN1CCCC(n2nc(Cc3ccc(Cl)cc3)c3ccccc3c2=O)CC1` (configuration not stated) [AZELASTINE] was 2.46; that for `CCCN1CCN(c2ccc(C(=O)NC3(C(=O)NCC#N)CCCCC3)cc2)CC1` [BALICATIB] was 1.33.
Take `NS(=O)(=O)c1cc2c(cc1C(F)(F)F)NC(Cc1ccccc1)NS2(=O)=O` (configuration not stated) [BENDROFLUMETHIAZIDE]: the logD was 1.78.
Still for that read-out and setting: the figure for `CCOC(=O)c1ccc(N)cc1` [BENZOCAINE] is 1.83; for `CC(C)COCC(CN(Cc1ccccc1)c1ccccc1)N1CCCC1` (configuration not stated) [BEPRIDIL] it is 3.66.
Compound `COc1ccc(-c2coc3cc(OC)cc(OC)c3c2=O)cc1` [BIOCHANIN A, DIMETHYL ETHER] returned a logD of 3.05.
Compound `COc1ccc(-c2coc3cc(O)cc(O)c3c2=O)cc1` [BIOCHANIN] yielded a log distribution coefficient (logD) of 3.5.
For `OC(CCN1CCCCC1)(c1ccccc1)C1CC2C=CC1C2` (configuration not stated) [BIPERIDEN], the logD was 2.49.
Turning to `C[C@H](Oc1ccc(S(C)(=O)=O)cc1C(=O)N1CCN(c2ncc(C(F)(F)F)cc2F)CC1)C(F)(F)F` [BITOPERTIN], the log distribution coefficient (logD) is 3.49.
`CCN(CC)CCNC(=O)c1cc(Br)c(N)cc1OC` [BROMOPRIDE] showed a logD of 0.54.
For the compound `CCCCN(CCCC)CCCOC(=O)c1ccc(N)cc1` [BUTACAINE], the logD was determined as 1.93.
`CCCCCOC(=O)Nc1nc(=O)n([C@@H]2O[C@H](C)[C@@H](O)[C@H]2O)cc1F` [CAPECITABINE] had a logD of 0.67.
Still for that read-out and setting: the value for `O=C1CCCCCN1` [CAPROLACTAM] was -0.08.
The same measure, in the same setting: the value for `CCN(CC)CCOCCOC(=O)C1(c2ccccc2)CCCC1` [CARBETAPENTANE] was 1.33; that for `C[C@@](Cc1ccc(O)c(O)c1)(NN)C(=O)O` [CARBIDOPA ANHYDROUS] was -0.7.
Regarding `O=c1ccoc2ccccc12` [CHROMONE], the logD worked out at 1.4.
Compound `O=c1cc(-c2ccccc2)oc2cc(O)cc(O)c12` [CHRYSIN] showed a logD of 3.83.
Take `O=C(c1ccc(OCCCc2cnc[nH]2)cc1)C1CC1` [CIPROXIFAN]: the logD was 2.68.
`CCN(CC)CCCNCc1cc(Cl)c2cccnc2c1O` [CLAMOXYQUIN] registered a pH-dependent lipophilicity (logD) of 0.72.
On the same count and under the same terms, the value for `COc1ccccc1CN[C@H]1CCCN[C@H]1c1ccccc1` [CP-99994] was 1.5.
In the case of `CC1CC(OC(=O)C(O)c2ccccc2)CC(C)(C)C1` (configuration not stated) [CYCLANDELATE], the logD was found to be 2.31.
Turning to `NS(=O)(=O)c1cc2c(cc1Cl)NC(C1CC3C=CC1C3)NS2(=O)=O` (configuration not stated) [CYCLOTHIAZIDE], the logD came to 2.12.
`CN1CCC(=C2c3ccccc3C=Cc3ccccc32)CC1` [CYPROHEPTADINE] gave a logD of 3.06.
`N[C@H](Cc1c[nH]c2ccccc12)C(=O)O` [D-TRYPTOPHAN]: the pH-dependent lipophilicity (logD) was -0.92.
`NS(=O)(=O)c1cc(Cl)c(Cl)c(S(N)(=O)=O)c1` [DICHLORPHENAMIDE] displayed a logD of 0.92.
On the same count and under the same terms, the value for `CCN(CC)CCOC(=O)C1(C2CCCCC2)CCCCC1` [DICYCLOMINE] was 3.72.
